Assays:
[1] = molecular target: T1, aldose reductase of rabbit lens (Oryctolagus cuniculus, UniProt P15122); test: Inhibitory effect on aldose reductase of lens; assay type: biochemical; conditions: read-out: Degree of inhibition for aldose reductase (%)
T1 construct: to obtain electrophoretically homogeneous aldose reductase; from tissue; host or cells: rabbit lens
Experimental: (§1) 0.05 ml of 3mM NADPH, 0.1 ml of DL-glyceraldehyde and 0.04 ml of distilled water were added to 0.8 ml of 0.1M phosphoric acid buffer (pH 6.2) and left to stand at 25°C for 3 minutes. Then, 0.01 ml of the aldose reductase solution was added thereto to start reaction and decreasing of absorbance of 340 nm was measured at 25°C with time. Amount of enzyme which consumes 1 µmole of NADPH for 1 minute was taken as 1 unit.
Enzyme activity was measured under the same conditions as in the above measurement of aldose reductase activity except that 0.04 ml of aqueous solution of inhibitory substance in various concentrations was added in place of 0.04 ml of distilled water and degree of inhibition was calculated from comparison of the enzyme activity with the enzyme activity obtained in the absence of inhibitor. (1) OPQ, (2) methyl OPQ, (3) 1-methylpropyl OPQ, (4) 2-methylpropyl OPQ, (5) 2-carbamoylethyl OPQ, (6) hydroxymethyl OPQ, (7) 2-methylthioethyl OPQ, (8) 2-carboxyethyl OPQ, (9) 4-hydroxybenzyl OPQ, (10) 1-methylethyl OPQ, and (11) benzyl OPQ were used as inhibition substances and (12) PQQ was used as control.
Lens of rabbit was homogenized with 10mM phosphoric acid buffer (pH 7.0) containing 2mM dithiothreitol in an amount of two times the volume of the lens and subjected to centrifugation. The supernatant liquid was purified by affinity chromatography, gel filtration and chromatofocusing to obtain electrophoretically homogeneous aldose reductase. Using (1) OPQ, (2) 1-methylpropyl OPQ, (3) 2-methylpropyl OPQ, (4) hydroxymethyl OPQ, and (5) 1-methylethyl OPQ as inhibition substances, degree of inhibition of these substances for aldose reductase of rabbit lens was examined in the same manner in Example 32.

male SPF-ICR mice = test: in vivo
Experimental: (§2) (1) Acute toxicity test: • (i) To male SPF-ICR mice of 5 weeks old (supplied by Charles River Co.) were intraperitoneally administered PQQ·2Na and OPQs in the dosages of 20, 40, 80, 160 and 200 mg/kg body weight of mouse, respectively and they were bred at 25°C for 14 days. OPQ, 1-methylpropyl OPQ, 2-methylthioethyl OPQ, and benzyl OPQ were used as the OPQs. One group consisted of 8 mice. […] One group consisted of 8 mice. […] They were bred at 25°C for 14 days. One group consisted of eight mice. […] (2) Toxicity to kidney (i) Toxicity to kidney determined by urine examination: In the same manner as in the acute toxicity test, PQQ·2Na and OPQs were respectively intraperitoneally administered to mice and these mice were bred. Urine was collected every day and concentration of glucose in urine was obtained using Uristex II (manufactured by Miles·Sankyo Co.). […]

[2] = Solubility of the isolated compound, described in words; assay type: physicochemical
[3] = test system: carbon tetrachloride (CCl4)-induced liver diseases; test: Pharmacological activity on carbon tetrachloride-induced liver diseases; assay type: in vivo, SD rats; conditions: 5mg/kg rat twice, CCl4 1 ml/kg rat
kidney = test: Toxicity to kidney determined by blood examination; assay type: in vivo, mice
Experimental: After one day from administration, the mice were fasted (only water was given) and after lapse of 18 hours, blood was collected and serum was obtained therefrom. Glucose, urea nitrogen and creatinine in the serum were examined using FUJI Dry Chemslide (manufactured by Fuji Photo Film Co., Ltd.). […]
Thereafter, the mice were fasted (with giving only water) and after lapse of 18 hours, blood was collected and serum was obtained therefrom. Contents of glucose, urea nitrogen and creatinine in serum were obtained using FUJI Dry Chemslide. The results were shown by average value for eight mice.

[4] = molecular target: aldose reductase of kidney (Canis lupus familiaris, UniProt A0A8I3P2L6); test: Inhibitory effect on aldose reductase of kidney; assay type: biochemical, dog; conditions: read-out: Degree of inhibition for aldose reductase (%)
Experimental: as §1, with “Medulla of kidney of dog was homogenized with 10mM phosphoric acid buffer (pH 7.0) containing 2mM dithiothreitol in an amount of four times the volume of kidney medulla and subjected to centrifugation. The supernatant liquid was purified by affinity chromatography, gel filtration and chromatofocusing to obtain electrophoretically homogeneous aldose reductase. 0.05” for “0.05”

in vivo = conditions: mouse, in vivo, ip
Experimental: as §2

cataract = test: Anti-cataract effect, intraperitoneal administration, 50 % galactose fed rats; assay type: in vivo, Sprague-Davley rats; conditions: for Body weight (average): 20mg/kg rat intraperitoneally once a day
Experimental: Eightyfour male Sprague-Davley rats (supplied from Japan Charles Liver Co.) of four weeks old and having a body weight of 70 - 80 g were used and the following experiments were conducted. One group consisted of six rats.
The groups included normal group, 50 % galactose administration group, PQQ administration group, and OPQ administration group. Commercially available feeding stuff (manufactured by Japan Clea Co.) was given to the rats of normal group, and rats of 50 % galactose administration group, PQQ administration group and OPQ administration group were allowed to freely take powdery feeding stuff comprising a mixture of the above-mentioned commercially available powder feeding stuff and D-galactose for food additive in equal weight.
To the rats of PQQ and OPQ administration groups were intraperitoneally administered PQQ·2Na or OPQ in a dosage of 2 mg, 5 mg, 10 mg and 20 mg per 1 kg of rat once a day simultaneously with starting of galactose feeding and until termination of feeding.
On the 6th day and the 9th day from starting of experiment, eyeball was observed by stereoscopic microscope and judgment on cataract was made according to the following criteria. A0: No muddiness (normal) A1: Light white muddiness in the surface portion. A2: A slight heavy white muddiness in the surface portion. A3: Heavy white muddiness in the surface portion. A4: Heavy white muddiness in the surface portion and a slight white muddiness in the core portion. A5: Heavy white muddiness in the surface portion and the core portion.

**Q.** With `CCC(C)c1nc2c3nc(C(=O)O)cc(C(=O)O)c3c3[nH]c(C(=O)O)cc3c2o1` (stereo not shown) [1-Methylpropyl OPQ, 5-(1-Methylpropyl)-2,8,10-tricarboxy-1H-oxazo[5,4-h]-pyrrolo[2,3-f]quinoline] as the compound, how does the inhibition at 1 µM ([1]; concentration 1x10^-6 M) read?
**A.** 64.7%

**Q.** And the inhibition at 0.1 µM ([1]; concentration 1x10^-7 M)?
**A.** 24%

**Q.** And the inhibition at 0.2 µM ([1]; concentration 2x10^-7 M)?
**A.** 36.4%

**Q.** What about the inhibition at 0.5 µM ([1]; concentration 5x10^-7 M) of the same compound?
**A.** 50.8%

**Q.** And the death of mice (male SPF-ICR mice; mouse, in vivo)?
**A.** no mice died

**Q.** What about the “solubility in acetone and diethyl ether” value ([2]; acetone and diethyl ether) of the same compound?
**A.** did not dissolve

**Q.** And the “solubility in lower alcohols” value ([2]; lower alcohols)?
**A.** dissolved

**Q.** And the solubility in water ([2]; water)?
**A.** easily soluble

**Q.** And the “solubility under neutral and alkaline conditions” value ([2]; water, neutral and alkaline conditions)?
**A.** very easily soluble

**Q.** And the Total bilirubin ([3]; Table 27: CCl4 only 1.2, no administration 0.5)?
**A.** 0.7 mg/dL

**Q.** And the GPT ([3]; Table 27: CCl4 only 818, no administration 16)?
**A.** 182 U/l

**Q.** And the GOT ([3]; Table 27: CCl4 only 3308, no administration 144)?
**A.** 887 U/l

**Q.** And the Creatinine (kidney; serum, 40 mg/kg mouse intraperitoneally, Table 2, no administration 0.8)?
**A.** 0.8 mg/dL

**Q.** And the Urea nitrogen (kidney; serum, 40 mg/kg mouse intraperitoneally, Table 2, no administration 24)?
**A.** 26 mg/dL

**Q.** What about the Glucose (kidney; serum, 40 mg/kg mouse intraperitoneally, Table 2, no administration 78) of the same compound?
**A.** 87 mg/dL

**Q.** What about the Creatinine (kidney; serum, 80 mg/kg mouse intraperitoneally, Table 2, no administration 0.8) of the same compound?
**A.** 0.8 mg/dL

**Q.** And the Urea nitrogen (kidney; serum, 80 mg/kg mouse intraperitoneally, Table 2, no administration 24)?
**A.** 22 mg/dL

**Q.** And the Glucose (kidney; serum, 80 mg/kg mouse intraperitoneally, Table 2, no administration 78)?
**A.** 104 mg/dL

**Q.** And the Creatinine (kidney; serum, 160 mg/kg mouse intraperitoneally, Table 2, no administration 0.8)?
**A.** 0.8 mg/dL

**Q.** And the Urea nitrogen (kidney; serum, 160 mg/kg mouse intraperitoneally, Table 2, no administration 24)?
**A.** 27 mg/dL

**Q.** And the Glucose (kidney; serum, 160 mg/kg mouse intraperitoneally, Table 2, no administration 78)?
**A.** 87 mg/dL

**Q.** And the Creatinine (kidney; serum, 200 mg/kg mouse intraperitoneally, Table 2, no administration 0.8)?
**A.** 0.8 mg/dL

**Q.** What about the Urea nitrogen (kidney; serum, 200 mg/kg mouse intraperitoneally, Table 2, no administration 24) of the same compound?
**A.** 27 mg/dL

**Q.** And the Glucose (kidney; serum, 200 mg/kg mouse intraperitoneally, Table 2, no administration 78)?
**A.** 66 mg/dL

**Q.** What about the inhibition at 0.1 µM ([4]; concentration 1x10^-7 M) of the same compound?
**A.** 32.6%

**Q.** And the inhibition at 0.2 µM ([4]; concentration 2x10^-7 M)?
**A.** 45.9%

**Q.** And the inhibition at 0.5 µM ([4]; concentration 5x10^-7 M)?
**A.** 61.7%

**Q.** Which results are given for `O=C(O)c1cc(C(=O)O)c2c(n1)C(=O)C(=O)c1cc(C(=O)O)[nH]c1-2` [PQQ·2Na, reference compound]?
**A.** death of mice (male SPF-ICR mice; 80 mg intraperitoneally, 8 mice, 14 days): five mice died; death of mice (male SPF-ICR mice; 160 mg and 200 mg intraperitoneally, 8 mice, 14 days): all of eight mice died; death of mice (male SPF-ICR mice; mouse, in vivo): the mice survived; LD50 at 336 h (in vivo): ~70 mg/kg; Creatinine (kidney; mouse, in vivo, ip, 20 mg/kg): 0.8 mg/dL; Glucose (kidney; mouse, in vivo, ip, 20 mg/kg): 70 mg/dL; Urea nitrogen (kidney; mouse, in vivo, ip, 20 mg/kg): 25 mg/dL; Creatinine (kidney; mouse, in vivo, ip, 40 mg/kg): 2.3 mg/dL; Glucose (kidney; mouse, in vivo, ip, 40 mg/kg): 60 mg/dL; Urea nitrogen (kidney; mouse, in vivo, ip, 40 mg/kg): 110 mg/dL; Creatinine (kidney; mouse, in vivo, ip, 80 mg/kg): 3.4 mg/dL; Glucose (kidney; mouse, in vivo, ip, 80 mg/kg): 57 mg/dL; Urea nitrogen (kidney; mouse, in vivo, ip, 80 mg/kg): 130 mg/dL; Creatinine (kidney; mouse, in vivo, ip, 160 mg/kg): 4.2 mg/dL; Glucose (kidney; mouse, in vivo, ip, 160 mg/kg): 35 mg/dL; Urea nitrogen (kidney; mouse, in vivo, ip, 160 mg/kg): 139 mg/dL; body weight (cataract; 10 mg and 20 mg/kg rat intraperitoneally once a day): reduction in body weight was recognized; Body weight (average) (cataract; 6th day, normal group about 115 g): * Body weight reduced (average 66 g). Body weight of rats of normal group was about 115 g on the average.; Body weight (average) (cataract; 9th day, normal group about 141 g): ** Body weight did not increase (average 77 g). Body weight of rats of normal group was about 141 g on the average.
